A short description of data set [1]: Solubility / achievable concentration of sodium 4-phenylbutyrate in water. It counts as physicochemical. Conditions: supersaturated solution in aqueous medium. The procedure: This art-reported solubility is believed to pertain to the maximum solubility of the monomeric form of sodium 4-phenylbutyrate in water. As described in more detail below, a process has been identified of preparing a highly concentrated solution of sodium 4-phenylbutyrate, having a concentration 500 mg/mL in water by dissolving 5 g of sodium 4-phenylbutyrate in about 3.5 mL water to yield a solution volume of about 10 mL. The temperature can be room temperature (25° C.) or an elevated temperature, preferably in the range of up to about 80° C. The solution can be made at a higher temperature and then cooled to room temperature without precipitating resulting.

Data set [2] in a line: Storage of the concentrated aqueous solution at low temperature (freezing / precipitation). The format is physicochemical. The procedure:
Therefore, due to likely micelle formation of sodium 4-phenylbutyrate (which we term the self-associated polymeric form), the high concentration of about 500 mg/mL can be achieved in solution. […] This novel invention thus provides a dosage form better able to help the patients presently administered with a high volume dosage of sodium 4-phenylbutyrate. This invention is not intended to be limited by this discussion of micellar phases, or the presence or absence of other high concentration phases (such as sponge or L3, worm-like micelles, sheets and other laminar phases) that may be formed depending on the particular processing conditions and/or materials used. In the follow description the term “solution” is used without regard to whether a micellar phase is present. […] The mixture was cooled to 25° C. and 0.5 g of sodium benzoate was added and mixed well. […] Further cooling of this solution to about −4° C. caused precipitation.

For data set [3] the following is noted: high dosage of about 20 g a day; cited from earlier work.
In data set [4] the test system is histone deacetylase (HDAC). Conditions: cited from earlier work.

Turning to `O=C([O-])CCCc1ccccc1.[Na+]` [sodium 4-phenylbutyrate], the “maximum drug concentration achieved in the formulation” value in data set [1] is reported as “about 700 mg/mL”. Also, in data set [2] (600 mg/mL solution at 0° C.), the “freezing of the solution” value was “does not freeze”. Besides, the “temperature at which precipitation is observed on further cooling” value in data set [2] (about 500 mg/mL solution) was −40 °C. In addition, the “freezing or precipitation upon storage” value in data set [2] (about 500 mg/mL solution, 0° C. for two days) is reported as “did not freeze or precipitate out”. For the same molecule, the tolerability result in data set [3] is reported as “well tolerated”. Moreover, in data set [4], the “inhibition of histone deacetylase (HDAC)” value is on record as “efficient inhibitor”.

(Values after patent US20080171792A1, “Use of highly concentrated formulations of 4-phenylbutyrate for treatment of certain disorders” (priority 2006, published 2008).)
